Assay results from patent publication US20260356819A1, “OXOISOINDOLINYL-SUBSTITUTED […] DERIVATIVE AND USE THEREOF” (GLUETACS THERAPEUTICS (SHANGHAI) CO., LTD., priority 2023, published 2026).

Columns and labels:
Format in all cases: cell-based
Settings in all cases: compounds at 50 nM and 500 nM
IKZF1 = target: T1, IKZF1 (Homo sapiens, UniProt Q13422+Q96SW2); assay: Western blot degradation of IKZF1 in hPBMCs (24 h)
T1 construct: The supernatant was aspirated as the extracted total cell protein; endogenous in cells; host or cells: human peripheral blood mononuclear cells (hPBMCs)
Outline: (§1)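 Degradation in primary human PBMCs after 24 h compound exposure at 50 and 500 nM. Western blot band intensities, normalised to an internal control protein, expressed as % protein remaining relative to DMSO.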

CK1α = target: T2, CK1α (Homo sapiens, UniProt P48729+Q96SW2); assay: Western blot degradation of CK1α in hPBMCs (24 h)
T2 construct: The supernatant was aspirated as the extracted total cell protein; endogenous in cells; host or cells: human peripheral blood mononuclear cells (hPBMCs)
Outline: as §1

IKZF2 = target: T3, IKZF2 (Homo sapiens, UniProt Q96SW2+Q9UKS7); assay: Western blot degradation of IKZF2 in hPBMCs (24 h)
T3 construct: The supernatant was aspirated as the extracted total cell protein; endogenous in cells; host or cells: human peripheral blood mononuclear cells (hPBMCs)
Outline: as §1

GSPT1 = target: T4, GSPT1 (Homo sapiens, UniProt P15170+Q96SW2); assay: Western blot degradation of GSPT1 in hPBMCs (24 h)
T4 construct: The supernatant was aspirated as the extracted total cell protein; endogenous in cells; host or cells: human peripheral blood mononuclear cells (hPBMCs)
Outline: as §1

WEE1 = target: T5, WEE1 (Homo sapiens, UniProt P30291+Q96SW2); assay: Western blot degradation of WEE1 in hPBMCs (24 h)
T5 construct: The supernatant was aspirated as the extracted total cell protein; endogenous in cells; host or cells: human peripheral blood mononuclear cells (hPBMCs)
Outline: as §1

IKZF3 = target: T6, IKZF3 (Homo sapiens, UniProt Q96SW2+Q9UKT9); assay: Western blot degradation of IKZF3 in hPBMCs (24 h)
T6 construct: The supernatant was aspirated as the extracted total cell protein; endogenous in cells; host or cells: human peripheral blood mononuclear cells (hPBMCs)
Outline: as §1

T5 sequence (P30291 whole entry): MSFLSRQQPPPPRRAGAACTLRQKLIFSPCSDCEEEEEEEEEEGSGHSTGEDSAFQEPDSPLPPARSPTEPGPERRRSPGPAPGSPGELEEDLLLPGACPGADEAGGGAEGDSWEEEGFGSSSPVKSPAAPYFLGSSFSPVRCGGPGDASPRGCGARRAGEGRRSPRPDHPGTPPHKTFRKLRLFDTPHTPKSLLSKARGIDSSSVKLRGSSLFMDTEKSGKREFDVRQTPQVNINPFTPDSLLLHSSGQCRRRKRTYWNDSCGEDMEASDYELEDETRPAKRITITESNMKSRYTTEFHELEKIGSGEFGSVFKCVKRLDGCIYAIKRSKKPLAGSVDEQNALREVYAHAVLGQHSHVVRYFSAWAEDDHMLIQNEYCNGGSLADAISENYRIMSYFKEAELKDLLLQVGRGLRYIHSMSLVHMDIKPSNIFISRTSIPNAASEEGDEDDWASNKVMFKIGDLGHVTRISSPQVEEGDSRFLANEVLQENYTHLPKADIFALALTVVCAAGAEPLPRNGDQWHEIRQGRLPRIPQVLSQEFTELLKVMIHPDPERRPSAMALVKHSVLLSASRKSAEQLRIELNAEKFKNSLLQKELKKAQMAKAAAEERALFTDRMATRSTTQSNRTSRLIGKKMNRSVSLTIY
T5 sequence (Q96SW2 whole entry): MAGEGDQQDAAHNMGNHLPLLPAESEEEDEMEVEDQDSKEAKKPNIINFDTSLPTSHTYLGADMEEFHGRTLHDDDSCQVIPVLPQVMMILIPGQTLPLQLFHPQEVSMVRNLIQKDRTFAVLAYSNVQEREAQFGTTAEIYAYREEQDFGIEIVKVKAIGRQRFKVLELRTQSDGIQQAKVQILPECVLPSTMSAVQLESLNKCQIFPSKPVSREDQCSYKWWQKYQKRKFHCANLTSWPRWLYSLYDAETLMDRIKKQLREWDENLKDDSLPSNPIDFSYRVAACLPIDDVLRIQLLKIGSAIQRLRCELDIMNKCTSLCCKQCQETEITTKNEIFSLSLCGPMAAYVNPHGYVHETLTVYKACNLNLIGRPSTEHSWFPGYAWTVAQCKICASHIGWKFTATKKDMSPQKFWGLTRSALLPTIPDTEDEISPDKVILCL
T5 sequence (Q16531 whole entry partner): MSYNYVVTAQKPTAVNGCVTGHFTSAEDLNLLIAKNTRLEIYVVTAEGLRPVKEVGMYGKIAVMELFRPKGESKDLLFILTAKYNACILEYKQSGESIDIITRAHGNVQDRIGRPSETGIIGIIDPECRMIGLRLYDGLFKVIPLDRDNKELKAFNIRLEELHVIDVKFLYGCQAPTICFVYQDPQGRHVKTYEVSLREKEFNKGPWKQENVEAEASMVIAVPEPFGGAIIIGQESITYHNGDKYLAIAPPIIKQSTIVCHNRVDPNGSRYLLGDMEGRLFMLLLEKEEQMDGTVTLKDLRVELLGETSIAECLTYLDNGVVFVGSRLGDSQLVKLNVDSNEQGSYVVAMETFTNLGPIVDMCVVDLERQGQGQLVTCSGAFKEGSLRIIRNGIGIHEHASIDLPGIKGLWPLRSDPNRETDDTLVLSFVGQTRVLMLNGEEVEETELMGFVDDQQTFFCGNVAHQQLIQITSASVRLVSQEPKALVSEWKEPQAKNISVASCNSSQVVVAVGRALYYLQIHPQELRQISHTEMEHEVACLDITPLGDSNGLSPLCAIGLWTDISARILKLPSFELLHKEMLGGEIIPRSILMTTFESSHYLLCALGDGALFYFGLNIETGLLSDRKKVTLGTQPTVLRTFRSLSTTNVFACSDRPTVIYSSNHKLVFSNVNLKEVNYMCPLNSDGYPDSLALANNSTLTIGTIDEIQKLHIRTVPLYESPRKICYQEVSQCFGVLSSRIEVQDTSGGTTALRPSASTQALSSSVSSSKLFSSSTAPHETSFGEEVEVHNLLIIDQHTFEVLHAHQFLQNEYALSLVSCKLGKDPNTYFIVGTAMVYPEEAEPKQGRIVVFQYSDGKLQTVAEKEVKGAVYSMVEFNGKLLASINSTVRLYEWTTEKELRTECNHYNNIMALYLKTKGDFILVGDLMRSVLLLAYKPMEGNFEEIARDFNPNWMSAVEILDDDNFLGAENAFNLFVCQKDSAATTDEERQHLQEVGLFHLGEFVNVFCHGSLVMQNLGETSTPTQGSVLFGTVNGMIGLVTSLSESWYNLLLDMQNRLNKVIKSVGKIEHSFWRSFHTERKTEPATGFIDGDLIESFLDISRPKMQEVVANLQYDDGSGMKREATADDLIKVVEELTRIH
T2 sequence (P48729 whole entry): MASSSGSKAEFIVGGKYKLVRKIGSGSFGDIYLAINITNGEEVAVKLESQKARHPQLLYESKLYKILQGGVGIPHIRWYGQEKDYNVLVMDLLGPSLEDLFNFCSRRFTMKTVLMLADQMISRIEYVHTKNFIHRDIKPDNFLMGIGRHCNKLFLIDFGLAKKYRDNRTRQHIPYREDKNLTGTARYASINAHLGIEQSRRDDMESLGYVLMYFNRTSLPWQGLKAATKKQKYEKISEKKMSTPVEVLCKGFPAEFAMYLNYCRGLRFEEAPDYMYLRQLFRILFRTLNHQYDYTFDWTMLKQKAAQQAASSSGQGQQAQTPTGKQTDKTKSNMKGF
T2 sequence (Q96SW2 whole entry): as the sequence (Q96SW2 whole entry) above
T2 sequence (Q16531 whole entry partner): as the sequence (Q16531 whole entry partner) above
T4 sequence (P15170 whole entry): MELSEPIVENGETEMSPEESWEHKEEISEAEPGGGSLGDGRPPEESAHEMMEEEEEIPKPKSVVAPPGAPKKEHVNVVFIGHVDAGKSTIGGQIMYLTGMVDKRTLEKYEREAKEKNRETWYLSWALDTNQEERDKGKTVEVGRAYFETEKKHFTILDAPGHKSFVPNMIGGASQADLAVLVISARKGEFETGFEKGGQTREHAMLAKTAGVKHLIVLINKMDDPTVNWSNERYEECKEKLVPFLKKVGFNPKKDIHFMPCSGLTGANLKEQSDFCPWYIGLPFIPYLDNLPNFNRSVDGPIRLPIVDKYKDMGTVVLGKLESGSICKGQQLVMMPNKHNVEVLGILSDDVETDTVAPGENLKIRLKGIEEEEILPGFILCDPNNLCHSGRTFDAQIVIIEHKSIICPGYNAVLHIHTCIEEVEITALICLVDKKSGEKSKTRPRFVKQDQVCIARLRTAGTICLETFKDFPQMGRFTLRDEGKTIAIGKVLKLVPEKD
T4 sequence (Q96SW2 whole entry): as the sequence (Q96SW2 whole entry) above
T4 sequence (Q16531 whole entry partner): as the sequence (Q16531 whole entry partner) above
T6 sequence (Q9UKT9 whole entry): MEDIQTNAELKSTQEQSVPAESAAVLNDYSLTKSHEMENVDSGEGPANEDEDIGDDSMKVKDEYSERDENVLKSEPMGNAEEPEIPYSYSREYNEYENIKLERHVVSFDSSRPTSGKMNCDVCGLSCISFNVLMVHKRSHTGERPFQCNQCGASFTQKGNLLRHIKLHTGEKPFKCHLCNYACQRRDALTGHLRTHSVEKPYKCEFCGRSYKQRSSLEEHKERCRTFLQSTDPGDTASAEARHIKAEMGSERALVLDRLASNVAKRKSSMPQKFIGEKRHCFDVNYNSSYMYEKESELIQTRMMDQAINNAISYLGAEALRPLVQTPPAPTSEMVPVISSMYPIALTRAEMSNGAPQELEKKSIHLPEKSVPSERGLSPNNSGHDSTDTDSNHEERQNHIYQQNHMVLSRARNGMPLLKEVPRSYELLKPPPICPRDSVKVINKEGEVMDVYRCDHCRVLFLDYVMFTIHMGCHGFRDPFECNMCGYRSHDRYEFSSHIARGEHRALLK
T6 sequence (Q96SW2 whole entry): as the sequence (Q96SW2 whole entry) above
T6 sequence (Q16531 whole entry partner): as the sequence (Q16531 whole entry partner) above
T1 sequence (Q13422 whole entry): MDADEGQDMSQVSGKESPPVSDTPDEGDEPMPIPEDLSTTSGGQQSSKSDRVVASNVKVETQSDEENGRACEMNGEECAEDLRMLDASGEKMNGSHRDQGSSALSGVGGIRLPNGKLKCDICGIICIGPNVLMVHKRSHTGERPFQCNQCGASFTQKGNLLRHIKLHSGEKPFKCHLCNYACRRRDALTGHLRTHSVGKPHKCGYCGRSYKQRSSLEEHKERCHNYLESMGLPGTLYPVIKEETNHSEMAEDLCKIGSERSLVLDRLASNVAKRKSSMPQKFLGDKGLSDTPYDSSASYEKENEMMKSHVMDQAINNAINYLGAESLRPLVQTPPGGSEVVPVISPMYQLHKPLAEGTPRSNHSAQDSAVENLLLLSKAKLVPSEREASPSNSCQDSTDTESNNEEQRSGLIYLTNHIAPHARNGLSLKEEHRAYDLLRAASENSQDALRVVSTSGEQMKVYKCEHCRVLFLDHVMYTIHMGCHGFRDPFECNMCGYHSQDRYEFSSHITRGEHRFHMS
T1 sequence (Q96SW2 whole entry): as the sequence (Q96SW2 whole entry) above
T1 sequence (Q16531 whole entry partner): as the sequence (Q16531 whole entry partner) above

Structure (SMILES) | IKZF1 substrate protein remaining % (IKZF1) | CK1α substrate protein remaining % (CK1α) | IKZF2 substrate protein remaining % (IKZF2) | GSPT1 substrate protein remaining % (GSPT1) | WEE1 substrate protein remaining % (WEE1) | IKZF3 substrate protein remaining % (IKZF3)
O=C1CCN(N2Cc3cc(CN4CCN(c5c(F)cncc5Cl)CC4)ccc3C2=O)C(=O)N1 [GT-07171, 1-(5-((4-(3-chloro-5-fluoropyridin-4-yl)piperazin-1-yl)methyl)-1-oxoisoindolin-2-yl)dihydropyrimidine-2,4(1H,3H)-dione] | B (80%< substrate protein remaining % ≤100%) | B (80%< substrate protein remaining % ≤100%) | B (80%< substrate protein remaining % ≤100%) | B (80%< substrate protein remaining % ≤100%) | A (0% ≤ substrate protein remaining % ≤80%) | B (80%< substrate protein remaining % ≤100%)
O=C1CCN(N2C(=O)c3ccc(CN4CCN(c5ncccn5)CC4)cc3C2=O)C(=O)N1 [GT-07285, 2-(2,4-dioxotetrahydropyrimidin-1(2H)-yl)-5-((4-(pyrimidin-2-yl)piperazin-1-yl)methyl)isoindoline-1,3-dione] | A (0% ≤ substrate protein remaining % ≤80%) | B (80%< substrate protein remaining % ≤100%) | B (80%< substrate protein remaining % ≤100%) | B (80%< substrate protein remaining % ≤100%) | A (0% ≤ substrate protein remaining % ≤80%) | B (80%< substrate protein remaining % ≤100%)
O=C1CCN(N2C(=O)c3ccc(CN4CCN(c5nccc(Cl)c5Br)CC4)cc3C2=O)C(=O)N1 [GT-07291, 5-((4-(3-bromo-4-chloropyridin-2-yl)piperazin-1-yl)methyl)-2-(2,4-dioxotetrahydropyrimidin-1(2H)-yl)isoindoline-1,3-dione] | B (80%< substrate protein remaining % ≤100%) | B (80%< substrate protein remaining % ≤100%) | B (80%< substrate protein remaining % ≤100%) | A (0% ≤ substrate protein remaining % ≤80%) | A (0% ≤ substrate protein remaining % ≤80%) | B (80%< substrate protein remaining % ≤100%)
O=C1CCN(N2C(=O)c3ccc(CN4CCCN(C(c5ccccc5)c5ccccc5)CC4)cc3C2=O)C(=O)N1 [GT-07295, 5-((4-benzhydryl-1,4-diazepan-1-yl)methyl)-2-(2,4-dioxotetrahydropyrimidin-1(2H)-yl)isoindoline-1,3-dione] | B (80%< substrate protein remaining % ≤100%) | B (80%< substrate protein remaining % ≤100%) | B (80%< substrate protein remaining % ≤100%) | A (0% ≤ substrate protein remaining % ≤80%) | B (80%< substrate protein remaining % ≤100%) | B (80%< substrate protein remaining % ≤100%)
CC1(C)CCC(CN2CCN(Cc3ccc4c(c3)CN(N3CCC(=O)NC3=O)C4=O)C(C(F)(F)F)C2)=C(c2ccc(Cl)cc2)C1 (stereo not drawn) [GT-07296, 1-(5-((4-((4′-chloro-5,5-dimethyl-3,4,5,6-tetrahydro-[1,1′-biphenyl]-2-yl)methyl)-2-(trifluoromethyl)piperazin-1-yl)methyl)-1-oxoisoindolin-2-yl)dihydropyrimidine-2,4(1H,3H)-dione] | A (0% ≤ substrate protein remaining % ≤80%) | A (0% ≤ substrate protein remaining % ≤80%) | B (80%< substrate protein remaining % ≤100%) | A (0% ≤ substrate protein remaining % ≤80%) | A (0% ≤ substrate protein remaining % ≤80%) | B (80%< substrate protein remaining % ≤100%)
O=C1CCN(N2Cc3cc(CN4CCN(CC5=C(c6ccc(F)cc6)CCCC5)CC4)ccc3C2=O)C(=O)N1 [GT-07297, 1-(5-((4-((4′-fluoro-3,4,5,6-tetrahydro-[1,1′-biphenyl]-2-yl)methyl)piperazin-1-yl)methyl)-1-oxoisoindolin-2-yl)dihydropyrimidine-2,4(1H,3H)-dione] | B (80%< substrate protein remaining % ≤100%) | A (0% ≤ substrate protein remaining % ≤80%) | A (0% ≤ substrate protein remaining % ≤80%) | A (0% ≤ substrate protein remaining % ≤80%) | A (0% ≤ substrate protein remaining % ≤80%) | A (0% ≤ substrate protein remaining % ≤80%)
CC1(C)CCC(CN2CC3CCC2CN3Cc2ccc3c(c2)C(=O)N(N2CCC(=O)NC2=O)C3=O)=C(c2ccc(Cl)cc2)C1 (stereo not drawn) [GT-07300, 5-((5-((4′-chloro-5,5-dimethyl-3,4,5,6-tetrahydro-[1,1′-biphenyl]-2-yl)methyl)-2,5-diazabicyclo[2.2.2]octan-2-yl)methyl)-2-(2,4-dioxotetrahydropyrimidin-1(2H)-yl)isoindoline-1,3-dione] | B (80%< substrate protein remaining % ≤100%) | B (80%< substrate protein remaining % ≤100%) | B (80%< substrate protein remaining % ≤100%) | B (80%< substrate protein remaining % ≤100%) | A (0% ≤ substrate protein remaining % ≤80%) | B (80%< substrate protein remaining % ≤100%)
CC1(C)CCC(CN2CCN(Cc3ccc4c(c3)C(=O)N(N3CCC(=O)NC3=O)C4=O)C(C(F)(F)F)C2)=C(c2ccc(Cl)cc2)C1 (stereo not drawn) [GT-07301, 5-((4-((4′-chloro-5,5-dimethyl-3,4,5,6-tetrahydro-[1,1′-biphenyl]-2-yl)methyl)-2-(trifluoromethyl)piperazin-1-yl)methyl)-2-(2,4-dioxotetrahydropyrimidin-1(2H)-yl)isoindoline-1,3-dione] | B (80%< substrate protein remaining % ≤100%) | B (80%< substrate protein remaining % ≤100%) | B (80%< substrate protein remaining % ≤100%) | A (0% ≤ substrate protein remaining % ≤80%) | B (80%< substrate protein remaining % ≤100%) | B (80%< substrate protein remaining % ≤100%)
O=C1CCN(N2C(=O)c3ccc(CN4CCN(CC5=C(c6ccc(F)cc6)CCCC5)CC4)cc3C2=O)C(=O)N1 [GT-07302, 2-(2,4-dioxotetrahydropyrimidin-1(2H)-yl)-5-((4-((4′-fluoro-3,4,5,6-tetrahydro-[1,1′-biphenyl]-2-yl)methyl)piperazin-1-yl)methyl)isoindoline-1,3-dione] | B (80%< substrate protein remaining % ≤100%) | B (80%< substrate protein remaining % ≤100%) | B (80%< substrate protein remaining % ≤100%) | B (80%< substrate protein remaining % ≤100%) | A (0% ≤ substrate protein remaining % ≤80%) | B (80%< substrate protein remaining % ≤100%)
CC1(C)CC(c2ccc(Cl)cc2)=C(CN2CCN(Cc3ccc4c(c3)C(=O)N(N3CCC(=O)NC3=O)C4=O)CC2)CO1 [GT-07304, 5-((4-((4-(4-chlorophenyl)-6,6-dimethyl-5,6-dihydro-2H-pyran-3-yl)methyl)piperazin-1-yl)methyl)-2-(2,4-dioxotetrahydropyrimidin-1(2H)-yl)isoindoline-1,3-dione] | B (80%< substrate protein remaining % ≤100%) | A (0% ≤ substrate protein remaining % ≤80%) | B (80%< substrate protein remaining % ≤100%) | A (0% ≤ substrate protein remaining % ≤80%) | B (80%< substrate protein remaining % ≤100%) | B (80%< substrate protein remaining % ≤100%)
Cc1ccsc1C1CCN(Cc2ccc3c(c2)CN(N2CCC(=O)NC2=O)C3=O)CC1 [GT-07305, 1-(5-((4-(3-methylthiophen-2-yl)piperidin-1-yl)methyl)-1-oxoisoindolin-2-yl)dihydropyrimidine-2,4(1H,3H)-dione] | B (80%< substrate protein remaining % ≤100%) | B (80%< substrate protein remaining % ≤100%) | A (0% ≤ substrate protein remaining % ≤80%) | A (0% ≤ substrate protein remaining % ≤80%) | B (80%< substrate protein remaining % ≤100%) | A (0% ≤ substrate protein remaining % ≤80%)
Cc1ccsc1C1CCN(Cc2ccc3c(c2)C(=O)N(N2CCC(=O)NC2=O)C3=O)CC1 [GT-07306, 2-(2,4-dioxotetrahydropyrimidin-1(2H)-yl)-5-((4-(3-methylthiophen-2-yl)piperidin-1-yl)methyl)isoindoline-1,3-dione] | B (80%< substrate protein remaining % ≤100%) | B (80%< substrate protein remaining % ≤100%) | B (80%< substrate protein remaining % ≤100%) | A (0% ≤ substrate protein remaining % ≤80%) | B (80%< substrate protein remaining % ≤100%) | A (0% ≤ substrate protein remaining % ≤80%)
